# Test results as given in patent publication US8084596B2, “Regulated apoptosis” (The Board of Trustees of the Leland Stanford Junior …, priority 1993, dated 2011).
# Key:
# [1] = system: NFAT; experiment: NFAT reporter (secreted alkaline phosphatase) after cross-linking chimeric receptor TAC/TAC/Z with anti-TAC mAb in TAg Jurkat cells; type: cell-based, human; settings: addition of 1 ng/ml FK506; TTZ receptor, bound anti-TAC mAb
# Description: The plasmid pSXNeo/IL2 (IL2-SX) (FIG. 1), which contains the placental secreted alkaline phosphatase gene under the control of human IL-2 promoter (−325 to +47; MCB(86) 6, 3042), and related plasmid variants (i.e. NFAT-SX, NF B-SX, OAP/Oct1-SX, and AP-1-SX) in which the reporter gene is under the transcriptional control of the minimal IL-2 promoter (−325 to −294 and -72 to −47) combined with synthetic oligomers containing various promoter elements (i.e. NFAT, NKB, OAP/Oct-1, and AP1, respectively), were made by three piece ligations of 1) pPL/SEAP (Berger, et al., Gene (1988) 66, 1) cut with SspI and HindIII; 2) pSV2/Neo (Southern and Berg, J. Mol. Appl. Genet. (1982) 1, 332) cut with NdeI, blunted with Klenow, then cut with Pvul; and 3) various promoter-containing plasmids (i.e. NFAT-CD8, B-CD8, cx121acZ-Oct-1, AP1-LUCIF3H, or cx151L2) described below) cut with PvuI and HindIII, NFAT-CD8 contains 3 copies of the NFAT-binding site (−286 to […]; Genes and Dev. (1990) 4, 1823) and cx12lacZ-Oct contains 4 copies of the OAP/Oct-1(ARRE-1) binding site (MCB, (1988) 8, 1715) from the human IL-2 enhancer; B-CD8 contains 3 copies of the NFB binding site from the murine light chain (EMBO (1990) 9, 4425) and AP1-LUCIF3H contains 5 copies of the AP-1 site (5′-TGA-[…]-3′ [SEQ ID NO:3]) from the metallothionen promoter. […]
# [2] = molecular target: T1, MZF3E (Mus musculus, UniProt P24161); experiment: NFAT-SEAP reporter via myristoylated chimeric CD3/FKBP12 (MZF3E) receptor in Jurkat T cells; type: cell-based, human
# T1 construct: expressed in transfected cells
# [3] = Immunosuppression / toxicity in cell culture; type: cell-based
# [4] = system: GF2E or GF3E with NF3V1E (G5E4TCAT reporter); experiment: Transcriptional induction: CAT activity in Jurkat TAg cells transfected with GAL4-FKBP and FKBP-VP16 chimeras; type: cell-based, human; settings: 1 μM ligand, 12 hours; samples 5 (GF2E, NF3V1E) and 6 (GF3E, NF3V1E) in the presence of ligand
# Protocol: Jurkat TAg cells were transfected with the indicated constructs (5 μg of each construct) by electroporation (960 μF, 250 v). After 24 hours, the cells were resuspended in fresh media and aliquoted. […] After 12 hours, the cells were washed and cellular extracts were prepared by repeated freeze-thaw. Chloramphenicol acetyltransferase (CAT) activity was measured by standard protocols. Molecular Cloning: A Laboratory Manual, Sambrook et al. eds. (1989) CSH Laboratory, pp. 16-59 ff. […]
# [5] = system: MZF3Eflu / MZF3Eflag; experiment: Coimmunoprecipitation of epitope-tagged chimeras (anti-Flag agarose) in Jurkat T cells; type: cell-based, human
# [6] = molecular target: T1, MZF3E; experiment: Protein-tyrosine phosphorylation and kinase recruitment in Jurkat cells stably transfected with MZF3E; type: cell-based, human
# Protocol: Tyrosine phosphorylation after treatment of cells with either anti-CD3 MAb or FK1012 was detected using monoclonal alpha-phosphotyrosine antibodies. Whole cell lysates were analysed at varying times after stimulation.
# [7] = system: TAg-Jurkat cells; experiment: Inhibitory activity of drugs on ionomycin/PMA-stimulated TAg-Jurkat cells (β-galactosidase, MUG fluorescence); type: cell-based, human
# Protocol: Ionomycin (1 μm) and PMA (25 ng/ml) were added to 10^5 TAg-Jurkat cells. In addition, titrations of the various drugs were added. After 5 hours the cells were lysed in mild detergent (i.e. Triton X-100) and the extracts were incubated with the β-galactosidase substrate, MUG (methyl galactosidyl umbelliferone) for 1 hour. A glycine/EDTA stop buffer was added and the extracts assayed for fluorescence. Each data point obtained was the average of two samples and the experiment was performed several times with similar results.
# T1 sequence (P24161 with tags, fused parts or gaps limits assumed): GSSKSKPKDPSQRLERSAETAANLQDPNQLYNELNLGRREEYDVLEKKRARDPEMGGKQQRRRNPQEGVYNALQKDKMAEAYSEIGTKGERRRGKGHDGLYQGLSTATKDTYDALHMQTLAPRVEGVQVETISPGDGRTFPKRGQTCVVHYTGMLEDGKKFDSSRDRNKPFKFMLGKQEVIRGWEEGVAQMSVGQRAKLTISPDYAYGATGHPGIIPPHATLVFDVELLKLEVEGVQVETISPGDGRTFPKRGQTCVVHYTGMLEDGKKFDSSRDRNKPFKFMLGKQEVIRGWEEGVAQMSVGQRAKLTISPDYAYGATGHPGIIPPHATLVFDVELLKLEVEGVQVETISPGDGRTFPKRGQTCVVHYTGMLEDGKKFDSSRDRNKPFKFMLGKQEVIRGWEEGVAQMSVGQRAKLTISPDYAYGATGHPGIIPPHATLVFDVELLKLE
# MZF3Eflu / MZF3Eflag, sequence (P62942 2-108 limits assumed): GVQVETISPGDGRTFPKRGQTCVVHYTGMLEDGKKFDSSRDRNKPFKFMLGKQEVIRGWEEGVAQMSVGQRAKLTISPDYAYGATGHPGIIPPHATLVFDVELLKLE
# GF2E or GF3E with NF3V1E (G5E4TCAT reporter), sequence (P62942 2-108 limits assumed): as above
compound,measurement,setting,value
"C=CC[C@@H]1/C=C(\C)C[C@H](C)C[C@H](OC)[C@H]2O[C@@](O)(C(=O)C(=O)N3CCCC[C@H]3C(=O)O[C@H](/C(C)=C/[C@@H]3CC[C@@H](O)[C@H](OC)C3)[C@H](C)[C@@H](O)CC1=O)[C@H](C)C[C@@H]2OC [FK506, reference compound]",alkaline phosphatase reporter activity due to NFAT,[1],dropped all activity due to NFAT to background levels
same,FK1012B stimulation of NFAT reporter,[2]; addition of 1 ng/ml FK506,dropped all stimulations to near background levels
CO[C@H]1C[C@@H](C)C/C(C)=C/[C@@H](CCOC(=O)NCc2ccccc2)C(=O)C[C@H](O)[C@@H](C)[C@@H](/C(C)=C/[C@@H]2CC[C@@H](O)[C@H](OC)C2)OC(=O)[C@@H]2CCCCN2C(=O)C(=O)[C@]2(O)O[C@H]1[C@@H](OC)C[C@H]2C [FK506-M],toxicity,[3],nontoxic
same,termination of FK1012-induced signaling (deaggregation),[2],FK1012-induced signaling can be terminated
FK1012-A (p-xylylenediamine bridge) [FK1012A],CAT activity,[4],CAT activity present as expected
same,dimerization of FKBP monomer constructs MZF1Eflu and MZF1Eflag,[5],also dimerized by FK1012A
same,coimmunoprecipitation of MZF3Eflu with MZF3Eflag,"[5]; 1 μM, Jurkat T cells coexpressing both chimeras",MZF3Eflag interacts with MZF3Eflu and is coimmunoprecipitated
same,recruitment of kinase activity to the zeta-chain (in vitro kinase assay after immunoprecipitation),[6],resulted in the recruitment of kinase activity to the zeta-chain
"FK1012-B (diaminodecane-1,10 bridge) [FK1012B]",stimulation by the compound itself,[7]; control experiment,not stimulatory by itself
same,mitogen activity,"[7]; ionomycin 1 μm + PMA 25 ng/ml, highest concentration 5 μg/ml",appears to augment mitogen activity slightly
